{
  "source": "patent US20260191937A1",
  "about": "“AGENTS, COMPOSITIONS AND METHODS FOR MODULATING IMMUNITY” (The University of Queensland, priority 2022, published 2026)",
  "key": {"[1]": {"system": "uropathogenic Escherichia coli (UPEC) strain EC958", "assay": "Growth of UPEC strain EC958 with or without H2O2 oxidative stress (OD600, 12 h)", "type": "cell-based", "procedure": "FIG. 5 is a graphical representation showing effect of increasing RL5P concentrations on the growth of uropathogenic Escherichia coli (UPEC) strain EC958 under conditions of oxidative stress in the form of 0.8 mM H2O2. (A) EC958 was cultured±H2O2 (0.8 mM) in the presence of the indicated concentrations of RL5P for 12 h, during which growth was assessed (A600 at the indicated time points); (B) Area under the curve analysis for the 12 h period was calculated thereafter and is presented in FIG. 5B. Data are compiled from four independent experiments and are presented as mean±SEM. Each symbol represents a different experiment. Statistical significance for (B) was determined using repeated measure two-way ANOVA followed by non-parametric Kruskal Wallis test followed by Dunn's multiple comparison test (ns—not significant; * p<0.05; **** p<0.0001).\nFIG. 6 is a graphical representation showing effect of increasing RL5P concentrations on the growth of UPEC under conditions of oxidative stress in the form of 1 mM H2O2. (A) EC958 was cultured±H2O2 (1 mM) in the presence of the indicated concentrations of RL5P for 12 h, during which growth was assessed (A600 at the indicated time points); (B) EC958 was cultured in the presence of the indicated concentrations of RL5P and the absence of H2O2 for 12 h, during which growth was assessed (A600 at the indicated time points). Data are compiled from four independent experiments and are presented as mean±SEM.\nFIG. 7 is a graphical representation showing the effect of RL5P and 6-phosphogluconate (6PG) on the on the growth of UPEC under conditions of oxidative stress in the form of H202. (A) EC958 was cultured±H2O2 (0.8 mM) in the presence of the indicated concentration of RL5P or 6PG for 12 h, during which growth was assessed (A600 at the indicated time points); (B). Each symbol represents a different experiment. Statistical significance for (B) was determined using repeated measure two-way ANOVA followed by non-parametric Kruskal Wallis test followed by Dunn's multiple comparison test (ns—not significant; * p<0.05; **** p<0.0001).\nAll bacterial strains were cultured at 37° C. on solid or liquid Luria-Bertani (LB) medium. The non-pathogenic E. coli K12 strain MG1655 (Blattner et al., 1997. Science. 277:1453-1462) and EC958, a representative strain of the globally-disseminated multidrug-resistant ST131 clone isolated from the urine of a patient with a urinary tract infection (Totsika et al., 2011, PloS one. 6:e26578-e26578; Petty et al., 2014, Proc Natl Acad Sci USA. 111:5694-5699), were used in this study. […] Bacterial growth was assessed by monitoring OD600 using a POLARstar Omega (BMG Labtech) at 20-30 min intervals."}, "[2]": {"system": "Human monocyte-derived macrophages (HMDM)", "assay": "Cytokine release (ELISA) from human monocyte-derived macrophages pre-treated with RL5P", "type": "cell-based", "procedure": "(§1) FIG. 3 is a graphical representation showing the effect of R5LP treatment of macrophages on the release of cytokines IL-1β and TNF. (A-B) Human monocyte-derived macrophages (HMDM) were pre-treated with ribulose-5-phosphate (RL5P) for 16 h at the indicated concentrations. Nigericin-triggered IL-1β release from LPS-primed cells (A), as well as LPS-induced TNF (B) in culture supernatants were assessed by ELISA. (C-D) BMM were pre-treated for 16 h with RL5P at the indicated concentrations. Nigericin-triggered IL-1β release from LPS-primed cells (C), as well as LPS-induced TNF (D) in culture supernatants were assessed by ELISA. Data were compiled from six independent experiments (or donors) and are presented as mean±S.E.M. Statistical significance was determined using two-way ANOVA followed by Sidak's multiple comparison test (ns—not significant; * p<0.05; ** p<0.01).\n(§2) FIG. 4 is a graphical representation showing the effect of R5LP treatment of macrophages on the release of cytokine IL-6. HMDM and BMM were pre-treated with the indicated concentrations of RL5P for 16 h, after which they were either stimulated with LPS (10 ng/mL) or infected with uropathogenic Escherichia coli (UPEC) strain EC958 (MOI 100) for 4 h. Supernatants were then assessed for secreted IL-6 by ELISA. Data were compiled from six independent experiments (or donors) and are presented as mean±SEM. Panel A presents IL-6 release (ng/mL), Panel B present IL-6 release normalized to LPS alone. Statistical significance was determined using repeated measure two-way ANOVA followed by Dunnett's multiple comparison test (A-B) (ns—not significant).\n(§3) BMM were generated from indicated strains of mice, as previously described (Das Gupta et al., 2020, Cell Rep. 30:2712-2728.e2718). Bone marrow cells were cultured for 6 days in RPMI-1640 media (Thermo Fisher Scientific) supplemented with 10% FCS, 50 U/mL penicillin, 50 μg/mL streptomycin and 2 mM L-glutamine, in the presence of recombinant human colony-stimulating factor 1 (CSF-1), at either 1×10^4 U/mL (Chiron) or 150 ng/mL (The University of Queensland Protein Expression Facility). On day 6, BMM were harvested and replated at an appropriate density with fresh CSF-1, with cells being used in experiments on the following day. […]\n(§4) BMM (5×10^5 cells/mL) or HMDM (5×10^5 cells/mL) were treated as indicated in individual figure legends. Supernatants were collected and assessed for secreted TNF. […] Supernatants were collected and analyzed for levels of IL-1β. […]"}, "[3]": {"system": "bone marrow-derived macrophages (BMM)", "assay": "Cytokine release (ELISA) from mouse bone marrow-derived macrophages pre-treated with RL5P", "type": "cell-based", "procedure": "as §1, §2, §3, §4"}, "[4]": {"system": "bone marrow-derived macrophages (BMM)", "assay": "Retroviral overexpression of Pgd (6PGD) in BMM, cytokines by ELISA", "type": "cell-based, mouse", "procedure": "FIG. 2 is a graphical representation showing the effect of over expression of the 6PGD gene on the release of cytokines IL-1β, TNF and IL-6. The Pgd gene was retrovirally overexpressed in BMM. Nigericin-triggered IL-1β release from LPS-primed cells (A), as well as LPS-induced TNF (B) and IL-6 (C), in culture supernatants were assessed by ELISA. Data were compiled from five independent experiments and are presented as mean±S.E.M. Statistical significance was determined using two-way ANOVA followed by Sidak's multiple comparison test (ns—not significant; * p<0.05; ** p<0.01).\nRetroviral overexpression of target genes in primary macrophages was performed as previously described (Das Gupta et al., 2020, Cell Rep. 30:2712-2728.e2718). Briefly, 2×10^6 PlatE cells were transfected with 40 μg of the respective retroviral expression vectors using Lipofectamine 2000 (Thermo Fisher Scientific). At 24 h post-transfection, media were replaced and cells were incubated at 32° C. for 48 h for optimal virus production. Viral supernatants were filtered through a […] Millex-HV PVDF syringe filter (Merck) and supplemented with 1M HEPES, 10 μg/mL polybrene and CSF-1. Bone marrow progenitors treated with CSF-1 for 2 days were spin-infected (1000 g, 2 h, 35° C.) with viral supernatants in 6-well non-tissue culture plates. The cells were immediately supplemented with complete RPMI media, then incubated at 37° C. for 48 h. At 48 h post-transduction, cells were supplemented with complete RPMI media. On day 6 of macrophage differentiation, adherent cells were collected and plated for subsequent experiments.\nBMM (5×10^5 cells/mL) or HMDM (5×10^5 cells/mL) were treated as indicated in individual figure legends. Supernatants were collected and assessed for secreted TNF. To assess secreted IL-1β by ELISA, cells were further treated with Nigericin for 1 h (2 h for HMDMs). Supernatants were collected and analyzed for levels of IL-1β. For experiments comparing macrophages derived from mice of different genotypes, MTT assays were performed in parallel to control for any differences in plating densities."}},
  "data": [
    {"molecule": "O=C(O)[C@H](O)[C@@H](O)[C@H](O)[C@H](O)COP(=O)(O)O", "note": "[6PG, 6-phosphogluconate, reference compound]", "values": [
      {"measurement": "UPEC growth under oxidative stress", "setting": "[1]; 0.8 mM H2O2", "result": "did not affect UPEC growth"}
    ]},
    {"molecule": "O=C(CO)[C@H](O)[C@H](O)COP(=O)([O-])[O][Na+]", "note": "[RL5P, Disodium [(2R,3R)-2,3,5-trihydroxy-4-oxopentyl]phosphate]", "values": [
      {"measurement": "inducible TNF production (secreted TNF)", "setting": "[2]; HMDM pre-treated with RL5P for 16 h, ELISA", "result": "dramatically reduced secreted TNF levels"},
      {"measurement": "Nigericin-triggered IL-1β release from LPS-primed cells", "setting": "[2]; HMDM pre-treated with RL5P for 16 h, LPS, ELISA", "result": "suppressed LPS-inducible IL-1β production"},
      {"measurement": "Suppression of IL-1β production in cells responding to Escherichia coli", "setting": "[2]; HMDM, E. coli instead of LPS, effect in HMDM reduced to a lesser extent than in BMM", "result": "much less pronounced"},
      {"measurement": "inducible IL-6 production", "setting": "[2]; HMDM, RL5P 16 h, then LPS (10 ng/mL) or UPEC EC958 (MOI 100) 4 h, ELISA", "result": "did not affect inducible IL-6 production"},
      {"measurement": "UPEC growth under oxidative stress", "setting": "[1]; 0.8 mM H2O2", "result": "significantly impaired E. coli growth in a dose-dependent manner"},
      {"measurement": "UPEC growth under oxidative stress", "setting": "[1]; 1 mM H2O2", "result": "also apparent"},
      {"measurement": "UPEC growth in the absence of oxidative stress", "setting": "[1]; no H2O2", "result": "did not affect UPEC growth"},
      {"measurement": "inducible TNF production (secreted TNF)", "setting": "[3]; BMM pre-treated with RL5P for 16 h, ELISA", "result": "modest"},
      {"measurement": "Nigericin-triggered IL-1β release from LPS-primed cells", "setting": "[3]; BMM pre-treated with RL5P for 16 h, LPS, ELISA", "result": "suppressed LPS-inducible IL-1β production"},
      {"measurement": "Suppression of IL-1β production in cells responding to Escherichia coli", "setting": "[3]; BMM, E. coli instead of LPS", "result": "much less pronounced"},
      {"measurement": "inducible IL-6 production", "setting": "[3]; BMM, RL5P 16 h, then LPS (10 ng/mL) or UPEC EC958 (MOI 100) 4 h, ELISA", "result": "did not affect inducible IL-6 production"}
    ]},
    {"molecule": "6PGD: 6-phosphogluconate dehydrogenase ectopically expressed; retroviral Pgd overexpression in BMM; in b299 delivered as mRNA in DMONs (protein, 6-phosphogluconate dehydrogenase ectopically expressed; in b299 delivered as mRNA in DMONs) MAQADIALIGLAVMGQNLILNMNDHGFVVCAFNRTVSKVDDFLANEAKGTKVVGAQSLKDMVSKLKKPRRVILLVKAGQAVDDFIEKLVPLLDTGDIIIDGGNSEYRDTTRRCRDLKAKGILFVGSGVSGGEEGARYGPSLMPGGNKEAWPHIKAIFQAIAAKVGTGEPCCDWVGDEGAGHFVKMVHNGIEYGDMQLICEAYHLMKDVLGMRHEEMAQAFEEWNKTELDSFLIEITANILKYRDTDGKELLPKIRDSAGQKGTGKWTAISALEYGMPVTLIGEAVFARCLSSLKEERVQASQKLKGPKVVQLEGSKKSFLEDIRKALYASKIISYAQGFMLLRQAATEFGWTLNYGGIALMWRGGCIIRSVFLGKIKDAFERNPELQNLLLDDFFKSAVDNCQDSWRRVISTGVQAGIPMPCFTTALSFYDGYRHEMLPANLIQAQRDYFGAHTYELLTKPGEFIHTNWTGHGGSVSSSSYNA", "values": [
      {"measurement": "LPS-induced IL-6", "setting": "[4]", "result": "unaffected"},
      {"measurement": "LPS-induced TNF", "setting": "[4]", "result": "significantly reduced LPS-induced TNF"},
      {"measurement": "inducible IL-1β response", "setting": "[4]; Nigericin-triggered release from LPS-primed cells", "result": "attenuated the inducible IL-1β response"}
    ]}
  ]
}
